According to patent US8598125B2, “CDCA1 peptide and pharmaceutical agent comprising the same” (Onco Therapy Science, Inc., priority 2007, dated 2013):
Where no end group is shown, it is not given here.

Assays:
Format in all cases: cell-based
[1] = system: PANC1 cells (CDCA1+, HLA-A2+); assay: 51Cr release assay of peptide-induced human CTLs against PANC1; conditions: No. 1: cancer patient donor 1 CTLs; No. 4: healthy donor 1 CTLs
Source text: (§1) Monocyte-derived DC cells were used as antigen-presenting cells for induction of CTLs in response to HLA-presented peptides. DCs were obtained by previously reported in vitro methods (Suda T, et al. Cancer Sci. 2007; Nakahara S, et al. Cancer Res. 2003; 63:4112-8). Briefly, peripheral blood […] (PBMCs) isolated from HLA-A*0201 positive healthy volunteers and NSCLC patients using a Ficoll-Paque solution (GE Healthcare UK, Ltd., Buckinghamshire, UK) were screened for […] CD14 positive populations using MicroBeads (Miltenyi Biotec, Bergisch Gladbach, Germany). […] Six days after the third peptide stimulation on day 25, the antigen-specific CTL response was evaluated by Chromium (Cr) release assay and IFN-γ ELISPOT assay.
(§2) CTLs were co-cultured at various effector cell/target cell ratios with target cells which are various cancer cell lines and T2 cells with or without peptide pulsing, and ^51Cr release assay and IFN-γ ELISPOT assay were conducted using conventional methods (Komori H, et al., Clin. Cancer Res. 2006; 12:2689-2697; Makita M, et al. Clin. Cancer Res. 2002; 8:2626-31; Yokomine K, et al. Cancer Sci. 2007; 98:1930-5). […] Six hours after incubation, 50 μL of the supernatant was collected from each well, and radioactivity was quantified using a gamma counter. […]

[2] = system: COLO201 cells (CDCA1−, HLA-A2+); assay: 51Cr release assay of peptide-induced human CTLs against COLO201; conditions: cancer patient donor 1 CTLs
Source text: as §1, §2

peptide-pulsed T2 cells = assay: 51Cr release assay of peptide-induced human CTLs against peptide-pulsed T2 cells; conditions: CTLs from cancer patient donor 1 and healthy donor 1
Source text: as §1, §2

[3] = system: A549 cells (CDCA1+, HLA-2−); assay: 51Cr release assay of peptide-induced human CTLs against A549; conditions: No. 1: cancer patient donor 1 CTLs; No. 4: healthy donor 1 CTLs
Source text: as §1, §2

YMMPVNSEV [No. 1, YMMPVNSEV] was tested, and the “cytotoxic activity against PANC1 cells” value [1] was “showed cytotoxic activity”, the “cytotoxic activity against COLO201 cells” value [2] was “not” and the “cytotoxic activity against peptide-pulsed T2 cells” value (peptide-pulsed T2 cells) was “showed cytotoxic activity”. For the same sequence, the “cytotoxic activity against A549 cells” value [3] was “not”.
For KLATAQFKI [No. 4, KLATAQFKI], the “cytotoxic activity against PANC1 cells” value [1] was “showed cytotoxic activity”, the “cytotoxic activity against peptide-pulsed T2 cells” value (peptide-pulsed T2 cells) was “showed cytotoxic activity” and the “cytotoxic activity against A549 cells” value [3] was “not”.
